The values below come from patent US11939334B2, “Substituted pyrimido[4,5-b][1,4]diazepines as PLK1 degradation inducers” (UPPTHERA, INC., priority 2021, dated 2024).

The target in one assay is T1, PLK1 (Homo sapiens, UniProt P53350).
T1 construct: endogenous in cells; host or cells: HeLa cells stably expressing LgBit, with CRISPR/Cas9 knock-in of HiBit at the endogenous PLK1 locus
Description: Luciferase assay for PLK1 in HeLa LgBit (Plk1-HiBit KI) cell line. In kind it is cell-based. The note with it: 300 nM compound, luminescence after 9 hours. In a few lines: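 HeLa LgBit cells with endogenous Plk1 C-terminally HiBiT-tagged by CRISPR knock-in were synchronized by 2 mM thymidine block for 24 h, then released and seeded. After 18 h, Endurazine was added and compounds were dosed at 300 nM. Luminescence was tracked in real time; activity is the ratio to DMSO.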

The next assay concerns MRC-5 cell line. Description: Cell viability assay for MRC-5 cell line. The note with it: Homo sapiens, MRC5, 120 h, read-out: Activity: IC50 value (nM) to MRC-5 cell line.
The test system of another assay is H526 cell line. Description: Cell viability assay for H526 cell line. The following applies: Homo sapiens, NCI-H526, 120 h; H526 cells, 5 days, EZ-Cytox, 0.46-3000 nM. It is filed as cell-based. A digest of the protocol: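 NCI-H526 cells exposed to compounds for 5 days in a CO2 incubator; viability read as absorbance at 450 nm after 3 min plate shaking; IC50 derived from treatment response.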

T1 sequence (P53350 whole entry): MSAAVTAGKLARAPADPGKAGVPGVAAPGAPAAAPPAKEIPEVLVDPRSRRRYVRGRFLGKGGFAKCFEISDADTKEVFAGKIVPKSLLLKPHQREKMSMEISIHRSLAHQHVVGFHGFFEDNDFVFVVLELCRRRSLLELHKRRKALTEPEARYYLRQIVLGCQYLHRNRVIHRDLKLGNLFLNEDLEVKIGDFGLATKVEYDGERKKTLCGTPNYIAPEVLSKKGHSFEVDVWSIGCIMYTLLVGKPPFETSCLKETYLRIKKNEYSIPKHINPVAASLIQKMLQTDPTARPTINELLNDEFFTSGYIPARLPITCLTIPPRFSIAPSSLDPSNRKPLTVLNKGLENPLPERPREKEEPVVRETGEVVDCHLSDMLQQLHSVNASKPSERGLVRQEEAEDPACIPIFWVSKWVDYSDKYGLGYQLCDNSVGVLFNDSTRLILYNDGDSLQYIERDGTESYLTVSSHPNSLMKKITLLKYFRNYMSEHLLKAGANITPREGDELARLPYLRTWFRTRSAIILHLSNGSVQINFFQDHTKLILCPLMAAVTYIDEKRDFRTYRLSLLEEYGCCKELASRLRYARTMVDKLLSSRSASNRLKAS
Description for MRC-5 cell line: Cell Viability Assay for MRC-5 Cell Line
(1) Culture of MRC-5 Cell Line
The MRC-5 cell line was purchased from Korea Cell Line Bank (KCLB), Seoul, Korea. Passage of cultured cells was maintained within P15.
(2) Treatment of Compounds of the Present Invention
6×10^3 cells were seeded for each well of a 96-well plate (SPL), and the cells were cultured in total volume of 150 μL.
Each well was mixed with a medium and treated, and the volume was set to 50 μL, so that the total volume of each well was 200 μL. Then, it was cultured in 37° C.
The following compounds were used as comparative examples, and the cell viability assay was performed in the same manner as in the compounds of Examples.
(3) Cytotoxicity Experiment
After treating EZ-Cytox (DOGEN, Cat. NO. EZ-3000, Lot. No. DLS2112) 20 μL in each well of completely cultured plate, it was cultured in 37° C. CO2 incubator for 4 hours. […] The data were converted into graphs using the Prism (ver. 9) program.

`COc1cc(C(=O)NC2CCN(C3CC4(CCN(c5ccc(C6CCC(=O)NC6=O)cc5F)CC4)C3)CC2)ccc1Nc1ncc2c(n1)N(C(C)C)CC(F)(F)C(=O)N2C` (stereo not drawn) [Compound 39, 4-((7,7-difluoro-9-isopropyl-5-methyl-6-oxo-6,7,8,9-tetrahydro-5H-pyrimido[4,5-b][1,4]diazepin-2-yl)amino)-N-(1-(7-(4-(2,6-dioxopiperidin-3-yl)-2-fluorophenyl)-7-azaspiro[3.5]nonan-2-yl)piperidin-4-yl)-3-methoxybenzamide]: the “Activity: ratio of the luminescence value of each Exemplary Compound treatment group to DMSO treatment group” value on PLK1 is on record as “++ (++ <0.6)”. Also, the half-inhibitory concentration (IC50) is 5800 nM in the assay on MRC-5 cell line and less than 0.05 µM with H526 cell line.
